From patent US12673927B2, “Substituted aminothiazoles as DGKzeta inhibitors for immune activation” (Deutsches Krebsforschungszentrum, priority 2020, dated 2026)

molecular target: T1, human DGKζ (Homo sapiens, UniProt Q13574); assay: Human DGKζ kinase activity inhibition assay (ADP-Glo); assay type: biochemical; details: intermediates (lacking the R2 side chain; comparative); highest test concentration 20 μM; read-out: IC50 values of intermediates in in vitro human DGKζ kinase activity inhibition assays
T1 construct: made in house; host or cells: Sf9 insect cells, baculovirus
T1 sequence (Q13574 with tags, fused parts or gaps): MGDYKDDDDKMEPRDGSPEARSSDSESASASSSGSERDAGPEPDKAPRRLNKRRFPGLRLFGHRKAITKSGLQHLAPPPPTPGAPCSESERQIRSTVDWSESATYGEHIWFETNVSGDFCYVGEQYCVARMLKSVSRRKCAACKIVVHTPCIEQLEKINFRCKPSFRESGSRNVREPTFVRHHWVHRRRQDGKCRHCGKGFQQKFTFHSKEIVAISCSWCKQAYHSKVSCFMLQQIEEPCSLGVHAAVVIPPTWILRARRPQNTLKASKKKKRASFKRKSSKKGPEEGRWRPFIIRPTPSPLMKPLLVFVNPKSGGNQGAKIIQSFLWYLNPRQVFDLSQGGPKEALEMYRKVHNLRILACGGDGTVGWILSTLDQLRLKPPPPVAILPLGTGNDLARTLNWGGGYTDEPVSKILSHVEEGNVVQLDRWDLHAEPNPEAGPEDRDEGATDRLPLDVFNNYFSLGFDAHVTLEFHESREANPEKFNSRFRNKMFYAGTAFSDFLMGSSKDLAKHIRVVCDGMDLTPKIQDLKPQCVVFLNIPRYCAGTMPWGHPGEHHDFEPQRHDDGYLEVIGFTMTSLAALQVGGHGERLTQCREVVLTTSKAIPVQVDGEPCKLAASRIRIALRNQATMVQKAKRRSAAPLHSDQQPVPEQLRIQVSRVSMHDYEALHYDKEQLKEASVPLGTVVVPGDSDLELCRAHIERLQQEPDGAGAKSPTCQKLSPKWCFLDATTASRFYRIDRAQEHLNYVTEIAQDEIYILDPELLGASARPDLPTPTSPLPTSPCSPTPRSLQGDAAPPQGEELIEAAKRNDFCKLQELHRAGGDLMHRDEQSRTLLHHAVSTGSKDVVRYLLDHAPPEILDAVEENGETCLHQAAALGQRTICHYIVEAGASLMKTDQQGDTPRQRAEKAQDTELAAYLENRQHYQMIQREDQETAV
Experimental: Human DGKζ Kinase Activity Inhibition Assay
Human diacylglycerol kinase zeta (DGKζ) inhibitory activity of compounds of the present invention was quantified employing the human DGKζ kinase activity assay as described in the following paragraphs. In essence, the enzyme activity was measured by quantification of the adenosine-di-phosphate (ADP) generated as a co-product of the enzyme reaction via the “ADP-Glo™ Kinase Assay” kit from the company Promega. This detection system works as follows: In a first step the adenosine-tri-phosphate (ATP) not consumed in the kinase reaction is quantitatively converted to cyclic adenosine-mono-phosphate (cAMP) employing an adenylate cyclase (“ADP-Glo-reagent”), then the adenylate cyclase is stopped and the ADP generated in the kinase reaction is converted to ATP, which subsequently generates in a luciferase-based reaction a glow-luminescence signal (“Kinase Detection Reagent”).
C-terminally FLAG-tagged, recombinant full-length human DGKζ (inhouse expressed in baculovirus infected insect cells, purified using anti-Flag pulldown and size exclusion chromatography) was used as enzyme. As an alternative, commercially available enzyme by Carnabio can be used. As substrate for the kinase, 1,2-dioleoyl-sn-glycerol, reconstituted in octyl-β-D-glucopyranoside micelles, was used. […] Subsequently, 22.55 volumes of a 510 mM solution of octyl-β-D-glucopyranoside (Sigma-Aldrich, Cat. #08001-10G) in 50 mM MOPS buffer (pH 7.4) were added, and the mixture was sonicated in an ultrasonic bath for 20 s. Then 35 volumes of 50 mM MOPS buffer (pH 7.4) were added to yield a solution of 0.28 mM 1,2 dioleoyl-sn-glycerol and 200 mM octyl-β-D-glucopyranoside, which was aliquoted, flash-frozen in liquid nitrogen, and stored at −20° C. until use.
For the assay 50 nl of a 100-fold concentrated solution of the test compound in dimethyl sulfoxide (DMSO, Sigma) was pipetted into either a white 1536-well or a white low-volume 384-well microtiter plate (both Greiner Bio-One, Frickenhausen, Germany). […] The concentration of DGKζ was adjusted depending of the activity of the enzyme lot and was chosen appropriate to have the assay in the linear range, a typical concentration is about 0.1 nM. The reaction was stopped by the addition of 2.5 μL of “ADP-Glo-reagent” (1 to 1.5 diluted with water) and the resulting mixture was incubated at 22° C. for 1 h to convert the ATP not consumed in the kinase reaction completely to cAMP. Subsequently 2.5 μl of the “kinase detection reagent” (1.2 fold more concentrated than recommended by the producer) were added, the resulting mixture was incubated at 22° C. for 1 h and then the luminescence measured with a suitable measurement instrument (e.g. Viewlux™ from Perkin-Elmer). The amount of emitted light was taken as a measure for the amount of ADP generated and thereby for the activity of the DGKζ.
The data were normalised (enzyme reaction without inhibitor=0% inhibition, all other assay components but no enzyme=100% inhibition).

IC50	SMILES
> 20 µM	Nc1nc(Nc2ccc(F)cc2)sc1C(=O)c1ccc(F)cc1 [Example 65]
> 20 µM	COc1ccc(Nc2nc(N)c(C(=O)c3ccccc3)s2)cc1 [Example 67]

same assay, conditions: recombinant full-length human DGKζ, 55 μM ATP, 7 μM 1,2-dioleoyl-sn-glycerol, 20 min at 22° C.; read-out: IC50 in vitro human DGKζ kinase activity inhibition assay

IC50	SMILES
0.0207 µM	Cc1nc(N(c2ccc(F)cc2)C(C)C(N)=O)sc1C(=O)c1ccc(OC(F)F)cc1 (racemic) [Example 54]
0.107 µM	CC(C)NC(=O)COc1ccc(C(=O)c2sc(N(c3ccc(F)cc3)C(C)C(N)=O)nc2N)cc1 (single isomer, unassigned) [Example 153, 2-(N-[4-amino-5-[4-[2-(isopropylamino)-2-oxo-ethoxy]benzoyl]thiazol-2-yl]-4-fluoro-anilino)propanamide]
0.944 µM	CC(C(N)=O)N(c1ccc(Cl)c(F)c1)c1nc(N)c(C(=O)c2ccc(OC(F)F)nc2)s1 (single isomer, unassigned) [Example 164.2, 2-(N-[4-amino-5-[6-(difluoromethoxy)pyridine-3-carbonyl]thiazol-2-yl]-4-chloro-3-fluoro-anilino)propanamide]
0.387 µM	CNC(=O)COc1ccc(C(=O)c2sc(N(c3ccc(F)cc3)C(C)C(N)=O)nc2N)cc1 (single isomer, unassigned) [Example 151, 2-(N-[4-amino-5-[4-[2-(methylamino)-2-oxo-ethoxy]benzoyl]thiazol-2-yl]-4-fluoro-anilino)propanamide]
0.115 µM	CC(C(N)=O)N(c1ccc(F)c(Cl)c1)c1nc(N)c(C(=O)c2ccncc2)s1 (single isomer, unassigned) [Example 160.1, 2-(N-[4-amino-5-(pyridine-4-carbonyl)thiazol-2-yl]-3-chloro-4-fluoro-anilino)propanamide]
0.372 µM	CNC(=O)COc1ccc(C(=O)c2sc(N(c3ccc(F)cc3)C(C)C(N)=O)nc2N)cc1 (single isomer, unassigned) [Example 150, 2-(N-[4-amino-5-[4-[2-(methylamino)-2-oxo-ethoxy]benzoyl]thiazol-2-yl]-4-fluoro-anilino)propanamide]
0.0814 µM	CC(C(N)=O)N(c1cccc(F)c1)c1nc(N)c(C(=O)c2ccccc2)s1 (single isomer, unassigned) [Example 74.2, 2-(N-(4-amino-5-benzoyl-thiazol-2-yl)-3-fluoro-anilino)propanamide]
0.002 µM	CC(C(N)=O)N(c1ccc(Cl)c(F)c1)c1nc(N)c(C(=O)c2ccc(OCc3ccccc3)cc2)s1 (single isomer, unassigned) [Example 166.1, 2-(N-[4-amino-5-(4-benzyloxybenzoyl)thiazol-2-yl]-4-chloro-3-fluoro-anilino)propanamide]
0.214 µM	CC(C(N)=O)N(c1nc(N)c(C(=O)c2ccccc2)s1)c1ccccc1F (single isomer, unassigned) [Example 75.2, 2-(N-(4-amino-5-benzoyl-thiazol-2-yl)-2-fluoro-anilino)propanamide]
2.31 µM	NC(=O)CN(c1ccc(F)cc1)c1nc(N)c(C(=O)c2ccccc2)s1 (racemic) [Example 71]
0.872 µM	COc1ccc(C(=O)c2sc(N(c3ccc(F)c(F)c3)C(C)C(N)=O)nc2N)cc1 (single isomer, unassigned) [Example 51.2, 2-(N-[4-amino-5-(4-methoxybenzoyl)thiazol-2-yl]-3,4-difluoro-anilino)propanamide]
0.0127 µM	CC(C(N)=O)N(c1ccc(F)cc1)c1nc(N)c(C(=O)c2ccc(OCC(=O)NCC34CC5CC(CC(C5)C3)C4)cc2)s1 (single isomer, unassigned) [Example 143, 2-(N-[5-[4-[2-(1-adamantylmethylamino)-2-oxo-ethoxy]benzoyl]-4-amino-thiazol-2-yl]-4-fluoro-anilino)propanamide]
0.0764 µM	CC(C(N)=O)N(c1ccc(F)cc1)c1nc(N)c(C(=O)c2ccc(OCC(=O)NCCN3CCCCC3)cc2)s1 (single isomer, unassigned) [Example 148, 2-(N-[4-amino-5-[4-[2-oxo-2-[2-(1-piperidyl)ethylamino]ethoxy]benzoyl]thiazol-2-yl]-4-fluoro-anilino)propanamide]
0.051 µM	CC(C(N)=O)N(c1ccc(F)cc1)c1nc(N)c(C(=O)c2ccc(C#N)c(F)c2)s1 (single isomer, unassigned) [Example 21.2, 2-(N-[4-amino-5-(4-cyano-3-fluoro-benzoyl)thiazol-2-yl]-4-fluoro-anilino)propanamide]
0.00885 µM	COc1ccc(C(=O)c2sc(N(c3ccc(F)c(F)c3)C(C)C(N)=O)nc2N)cc1 (single isomer, unassigned) [Example 51.1, 2-(N-[4-amino-5-(4-methoxybenzoyl)thiazol-2-yl]-3,4-difluoro-anilino)propanamide]
0.111 µM	CC(C)NC(=O)COc1ccc(C(=O)c2sc(N(c3ccc(F)cc3)C(C)C(N)=O)nc2N)cc1 (single isomer, unassigned) [Example 152, 2-(N-[4-amino-5-[4-[2-(isopropylamino)-2-oxo-ethoxy]benzoyl]thiazol-2-yl]-4-fluoro-anilino)propanamide]
11 µM	Cc1cccc(N(c2nc(N)c(C(=O)c3ccccc3)s2)C(C)C(N)=O)c1 (single isomer, unassigned) [Example 76.2, 2-(N-(4-amino-5-benzoyl-thiazol-2-yl)-3-methyl-anilino)propanamide]
0.00737 µM	CC(C(N)=O)N(c1ccc(F)cc1)c1nc(N)c(C(=O)c2ccc(Cl)cc2)s1 (single isomer, unassigned) [Example 38.2, 2-(N-[4-amino-5-(4-chlorobenzoyl)thiazol-2-yl]-4-fluoro-anilino)propanamide]
0.00879 µM	CC(C(N)=O)N(c1ccc(F)cc1)c1nc(N)c(C(=O)c2ccc(OCC(=O)NCCC34CC5CC(CC(C5)C3)C4)cc2)s1 (single isomer, unassigned) [Example 144]
1 µM	CC(C(N)=O)N(c1ccc(F)cc1)c1nc(N)c(C(=O)c2ccc(OCc3ccccc3)cc2)s1 (single isomer, unassigned) [Example 170.2, 2-(N-[4-amino-5-(4-benzyloxybenzoyl)thiazol-2-yl]-4-fluoro-anilino)propanamide]
0.0216 µM	CC(C(N)=O)N(c1ccc(F)cc1)c1nc(N)c(C(=O)c2ccc(OCC(=O)Nc3ccc(C(N)=O)cc3)cc2)s1 (single isomer, unassigned) [Example 146, 4-([2-[4-[4-amino-2-(4-fluoro-N-[2-amino-1-methyl-2-oxo-ethyl]anilino)thiazole-5-carbonyl]phenoxy]acetyl]amino]benzamide]
0.405 µM	CC(C(N)=O)N(c1ccc(F)cc1)c1nc(N)c(C(=O)c2ccc(OCC(N)=O)cc2)s1 (single isomer, unassigned) [Example 149, 2-(N-[4-amino-5-[4-(2-amino-2-oxo-ethoxy)benzoyl]thiazol-2-yl]-4-fluoro-anilino)propanamide]
0.034 µM	COc1ccc(C(=O)c2sc(N(c3ccc(F)cc3)C(C)C(N)=O)nc2C)cc1 (single isomer, unassigned) [Example 176.1, 2-(4-fluoro-N-[5-(4-methoxybenzoyl)-4-methyl-thiazol-2-yl]anilino)propanamide]
0.024 µM	COc1ccc(C(=O)c2sc(N(c3ccc(Cl)c(F)c3)C(C)C(N)=O)nc2N)cn1 (single isomer, unassigned) [Example 172.1, 2-(N-[4-amino-5-(6-methoxypyridine-3-carbonyl)thiazol-2-yl]-4-chloro-3-fluoro-anilino)propanamide]
